From ChEMBL document CHEMBL3045160, “Betuligenol derivative with growth inhibition and antifeedant activity” (2004)

Key:
Type in all cases: functional
[1] = test system: Spilarctia obliqua; assay: Antifeedant activity against fourth-instar larval stage of Spilarctia obliqua reared on artificial diet containing compound assessed as growth inhibition at 5000 ppm after 48 hr; settings: read-out: GI
[2] = test system: Spilarctia obliqua; assay: Antifeedant activity against fourth-instar larval stage of Spilarctia obliqua reared on artificial diet containing compound assessed as growth inhibition at 4000 ppm after 48 hr; settings: read-out: GI
[3] = test system: Spilarctia obliqua; assay: Antifeedant activity against fourth-instar larval stage of Spilarctia obliqua reared on artificial diet containing compound assessed as growth inhibition at 3000 ppm after 48 hr; settings: read-out: GI
[4] = test system: Spilarctia obliqua; assay: Antifeedant activity against fourth-instar larval stage of Spilarctia obliqua reared on artificial diet containing compound assessed as growth inhibition at 2000 ppm after 48 hr; settings: read-out: GI
[5] = test system: Spilarctia obliqua; assay: Antifeedant activity against fourth-instar larval stage of Spilarctia obliqua reared on artificial diet containing compound assessed as growth inhibition at 1000 ppm after 48 hr; settings: read-out: GI
[6] = test system: Spilarctia obliqua; assay: Antifeedant activity against fourth-instar larval stage of Spilarctia obliqua reared on artificial diet containing compound assessed as feeding deterrence index at 5000 ppm after 24 hr
[7] = test system: Spilarctia obliqua; assay: Antifeedant activity against fourth-instar larval stage of Spilarctia obliqua reared on artificial diet containing compound assessed as feeding deterrence index at 4000 ppm after 24 hr
[8] = test system: Spilarctia obliqua; assay: Antifeedant activity against fourth-instar larval stage of Spilarctia obliqua reared on artificial diet containing compound assessed as feeding deterrence index at 2000 ppm after 24 hr
[9] = test system: Spilarctia obliqua; assay: Antifeedant activity against fourth-instar larval stage of Spilarctia obliqua reared on artificial diet containing compound assessed as feeding deterrence index at 3000 ppm after 24 hr
[10] = test system: Spilarctia obliqua; assay: Antifeedant activity against fourth-instar larval stage of Spilarctia obliqua reared on artificial diet containing compound assessed as feeding deterrence index at 1000 ppm after 24 hr
[11] = test system: Spilarctia obliqua; assay: Antifeedant activity against fourth-instar larval stage of Spilarctia obliqua reared on artificial diet containing compound assessed as growth inhibition […] after 48 hr; settings: read-out: GI

| SMILES | inhibition of growth at 5000 ppm [1] [%] | inhibition of growth at 4000 ppm [2] [%] | inhibition of growth at 3000 ppm [3] [%] | inhibition of growth at 2000 ppm [4] [%] | inhibition of growth at 1000 ppm [5] [%] | FDI [6] [%] | FDI [7] [%] | FDI [8] [%] | FDI [9] [%] | FDI [10] [%] | inhibition of growth at 5 ppm [11] [%] |
| --- | --- | --- | --- | --- | --- | --- | --- | --- | --- | --- | --- |
| COc1ccc(CC[C@@H](C)N)cc1 | 128 | 100 | 72 | 59 | 48 | 100 | 82 | 40 | 64 | 32 |  |
| C/C=C(\C)C(=O)O[C@H]1C[C@@H](OC(C)=O)[C@@]2(C(=O)OC)CO[C@H]3[C@@H](O)[C@@](C)([C@]45O[C@@]4(C)[C@@H]4C[C@H]5O[C@@H]5OC=C[C@@]54O)[C@H]4[C@]1(CO[C@]4(O)C(=O)OC)[C@@H]32 [AZADIRACHTIN A] |  |  |  |  |  |  |  |  |  | 100 |  |
| O=C(NC(=O)c1c(F)cccc1F)Nc1ccc(Cl)cc1 [DIFLUBENZURON] |  |  |  |  |  |  |  |  |  |  | 100 |
